Experimental data published in BindingDB's records for doi:10.1074/jbc.M112.356576 (University of Adelaide, 2012).

These molecules were tested against T1, Bifunctional ligase/repressor BirA (Staphylococcus aureus, UniProt A0A3A5LBF0) (assay: Enzyme Inhibition Assay).
T1 sequence (A0A3A5LBF0 whole entry): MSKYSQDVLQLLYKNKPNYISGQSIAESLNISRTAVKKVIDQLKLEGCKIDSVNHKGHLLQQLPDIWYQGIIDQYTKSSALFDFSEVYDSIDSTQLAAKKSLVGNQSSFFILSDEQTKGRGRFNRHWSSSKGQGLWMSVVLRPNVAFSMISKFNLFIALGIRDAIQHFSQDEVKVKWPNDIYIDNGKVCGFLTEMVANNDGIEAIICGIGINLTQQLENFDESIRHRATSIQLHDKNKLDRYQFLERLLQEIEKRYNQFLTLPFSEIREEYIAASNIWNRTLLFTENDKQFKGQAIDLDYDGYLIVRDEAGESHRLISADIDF
From the text: In vitro enzyme inhibition using biotin protein ligase.

Row | Compound | Ki [µM]
1 | O=C1NC2CS[C@@H](CCCCCc3cn(CCCCOc4ccc5ccccc5c4)nn3)C2N1 (stereo partly drawn) [Biotin triazole, 13] | 1.17
2 | Cc1ccc2oc(=O)n(CCCCn3cc(CCCCC[C@@H]4SCC5NC(=O)NC54)nn3)c2c1 (stereo partly drawn) [Biotin triazole, 14] | 0.09
3 | O=C1NC2CS[C@@H](CCCCCc3cn(CCCOc4ccc5ccccc5c4)nn3)C2N1 (stereo partly drawn) [Biotin triazole, 15] | > 10
4 | Cc1ccc2oc(=O)n(CCCn3cc(COCCC[C@@H]4SCC5NC(=O)NC54)nn3)c2c1 (stereo partly drawn) [Biotin triazole, 16] | > 10

Other lines, results leading:

Row | Ki [µM] | Compound
5 | 1.17 | Nc1ncnc2c1NCN2[C@@H]1O[C@H](Cn2cc(CCCCC[C@@H]3SCC4NC(=O)NC43)nn2)[C@@H](O)[C@H]1O (stereo partly drawn) [Biotin triazole, 5]
6 | > 10 | CC(C)(C)C(=O)OCCn1cc(CCCCC[C@@H]2SCC3NC(=O)NC32)nn1 (stereo partly drawn) [Biotin triazole, 10]
7 | > 10 | O=C1NC2CS[C@@H](CCCCCc3cn(CCCCOc4ccccc4)nn3)C2N1 (stereo partly drawn) [Biotin triazole, 11]
8 | > 10 | O=C1NC2CS[C@@H](CCCCCc3cn(CCCCOc4cccc5ccccc45)nn3)C2N1 (stereo partly drawn) [Biotin triazole, 12]
